In patent publication US4882359A, “Azacycloalkane derivatives, absorption promoters containing the derivatives as the effective ingredient and external preparations containing the absorption promoters” (priority 1986, dated 1989):
Each block holds one compound with its values, some of them ahead of it.

Columns and labels:
[1] = Percutaneous absorption of pindolol in rats, serum concentration by HPLC; format: in vivo, Wistar-strain male rats; details: for Activity (serum concentration of pindolol): relative to Control (Vehicle) = 1.0 of the same series in Table 5
Experimental: There were provided groups each consisting of four Wistar-strain male rats each weighing 200 to 250 g and having their dorsal skin hair shorn with an electric shaver.
Each of the test solutions (pindolol-containing preparations) was applied to the shorn dorsal skin of test rats of one of the groups in an amount of 150 μl/2.5×2.5 cm^2 and then sealed up. Three hours after the application of the test solution, the blood of the test rats was collected and measured for serum concentration of pindolol by HPLC.
For comparison, the above procedure was followed except that there was used a control solution which was the same as said test solution except for non-use of any compounds of this invention, and also followed using a comparative test solution which was the same as the test solution except for the substitution of a comparative compound for the compound of this invention.

[2] = Skin penetration of 5-FU from test solution, diffusion cell method; format: in vitro ADME, female hairless mice; details: for Cumulative amount of 5-FU permeated, 24 hrs later / Cumulative amount of 5-FU permeated, 48 hrs later: 3.0 wt.% test compound, 5-FU 1.8 wt.% in ethanol/water; for Activity (5-FU permeation): relative to Control (Vehicle) = 1.0
[3] = Skin penetration of pindolol from test solution, diffusion cell method; format: in vitro ADME, female hairless mice; details: for Activity (pindolol permeation): test solution, relative to Control (Vehicle) = 1.0
[4] = in vivo; details: rat
[5] = test system: glucose level in blood; assay: Percutaneous absorption of glibenclamide: glucose level in blood of glucose-loaded rats; format: in vivo, Wistar-strain male rats; details: for Glucose level: glibenclamide 0.6 wt.% solution on dorsal skin, two hours after s.c. 20% glucose; for Inhibition rate: glucose level, relative to control group A and normal group
Experimental: There were prepared control and test solutions having the following respective formulations (Table 8): […]
In the tests, there were used groups each consisting of four Wistar-strain male rats which weighed about 200 to 250 g and abstained from food for 24 hours.
Each of the control solutions A and B and the test solution indicated in the above Table 8 was applied to the dorsal skins, shorn by an electric clipper or shaver, of the rats of one group in an amount of 175 μl/2.5×2.5 cm^2 and then sealed up. Three hours after sealing up, 1.5 ml of 20% glucose was subcutaneously injected into said rats. Two hours after the glucose injection, the blood of the rats was collected and measured for glucose level in blood.
For comparison, the above procedure was followed except that azone was substituted for the compound of Example 12 in the test solution.
For further comparison, the blood of rats of one group which had been subjected only to 24 hours' abstinence from food (this group being hereinafter referred to as "normal group"), was measured for glucose level in blood. The rat groups to which the control solution A, the control solution B and the test solution were applied, are hereinafter referred to as "control group A", "control group B" and "test group", respectively.

[6] = test system: glucose level in blood; assay: Rectal absorption of insulin from suppository: glucose level in blood of rabbits; format: in vivo, male rabbits; details: for Changes of glucose level to the initial, 0.5 hr / Changes of glucose level to the initial, 1 hr / Changes of glucose level to the initial, 3 hrs: insulin suppository 0.3 g/kg rectal, 3% promoter where used
Experimental: There were prepared the following suppositories for use in normal, control and test groups, respectively, each group consisting of five male rabbits weighing 2.5 to 3.5 kg each.
The three suppositories were into the rectums of the rabbit groups in an amount of 0.3 g suppository/kg, respectively. Thereafter, blood was collected from the rabbits through their ear vein three times with the lapse of time to measure the three collected blood samples for glucose level in blood by a glucose oxidase method. […] The results are indicated in terms of a change in glucose level in blood with respect to the glucose level in blood prior to the administration of the suppositories.

[7] = test system: dorsal skin of Japanese-native rabbits; assay: Primary skin irritation test (Draize's method); format: in vivo; set-up: key to Average irritation score, 24 hours / Average irritation score, 48 hours / Average irritation score, 72 hours: Draize points: 0-2 mild, 2-6 moderate, 6-8 severe irritation; details: for Average irritation score, 24 hours: 3% solution in polyethylene glycol 300, 24 hours after removal of plaster; for Average irritation score, 48 hours: 3% solution in polyethylene glycol 300, 48 hours after removal of plaster; for Average irritation score, 72 hours: 3% solution in polyethylene glycol 300, 72 hours after removal of plaster; for Overall evaluation (skin irritation): graded from irritation scores at 24, 48 and 72 hours
Experimental: As one of tests on the compounds of this invention for their topical toxicity, a primary skin irritation test was made on skins using rabbits as the subjects. More particularly, an adhesive plaster for use in batch tests, to which 100 μl of a 3% test solution of each of the compounds of Examples 12, 37, 57 and 73 of this invention in 100 ml of polyethylene glycol 300 had dropwise been applied, was applied to the hair-shorn dorsal skin of three Japanese-native rabbits weighing 2.5 to 3.0 kg each and then sealed up on the dorsal skin for 24 hours. The rabbits were evaluated three times for their dorsal skin irritative reaction 24, 48 and 72 hours after removal of the plaster by using a method in accordance with the Draize's method.
The results are as shown in Table 18 in which the overall evaluation is represented by the following equation. [formula] and is graded into mild irritation (0-2 points), moderate irritation (2-6 points) and severe irritation (6-8 points).

[8] = for Activity (phenol red permeation): relative to Control (Vehicle) = 1.0
Experimental: There were investigated the effects of the compound of this invention on the percutneous penetration of phenol red which is difficult to be penetrated using the dorsal skin of female hairless mice (each 9 weeks old) by a diffusion cell method which comprised adding 0.5 ml of a sodium chloride injection containing 2 mM of phenol red to the donor side and measuring the amount of phenol red permeated into the receptor layer by high-pace optimal densitometric meter (559 nm).

Cumulative amount of 5-FU permeated, 24 hrs later [2]: 96 ± 15 µM | Cumulative amount of 5-FU permeated, 48 hrs later [2]: 178 ± 9 µM | Activity (5-FU permeation) [2]: 0.9 | Cumulative amount of pindolol permeated, 24 hrs later [3]: 1.3 ± 0.1 µM | Cumulative amount of pindolol permeated, 48 hrs later [3]: 2.7 ± 0.2 µM
Compound: CCN1CCCC1=O [1-ethyl-2-pyrolidone, 1-ethyl-2-pyrrolidone]
Activity (serum concentration of pindolol) [1]: 2.8 | Activity (pindolol permeation) [3]: 0.7

Compound: CN1CCCC1=O [1-methyl-2-pyrolidone, 1-methyl-2-pyrrolidone, reference compound]
Activity (serum concentration of pindolol) [1]: 1.9 | LD50 at 168 h ([4]; po): 1000 to 2000 mg/kg | LD50 at 168 h ([4]; sc): 2000 to 5000 mg/kg | Cumulative amount of 5-FU permeated, 24 hrs later [2]: 83 ± 15 µM | Cumulative amount of 5-FU permeated, 48 hrs later [2]: 192 ± 20 µM | Activity (5-FU permeation) [2]: 0.9

Compound: CCCCCCCCCCCCN1CCCCCC1=O [Azone, 1-n-dodecylazacycloheptane-2-one, reference compound]
Glucose level [5]: 133 ± 13 mg/dL | Inhibition rate [5]: 25.0% | LD50 at 168 h ([4]; po): > 5000 mg/kg | LD50 at 168 h ([4]; sc): > 5000 mg/kg | Changes of glucose level to the initial, 0.5 hr [6]: -4 mg/dL | Changes of glucose level to the initial, 1 hr [6]: +2 mg/dl | Changes of glucose level to the initial, 3 hrs [6]: +1 mg/dl | Average irritation score, 24 hours [7]: 3.8 ± 1.3 | Average irritation score, 48 hours [7]: 3.8 ± 1.7 | Average irritation score, 72 hours [7]: 5.5 ± 1.9 | Overall evaluation (skin irritation) [7]: Moderate (moderate irritation (2-6 points)) | irritating actions on the skins (in words) ([7]; rabbit, in vivo): moderate grade irritating actions | Cumulative amount of phenol red permeated, 24 hrs later ([8]; 3.0 wt.% test compound, phenol red, 24 hrs): 8.4 ± 7.6 µM | Cumulative amount of phenol red permeated, 48 hrs later ([8]; 3.0 wt.% test compound, phenol red, 48 hrs): 14.5 ± 0.7 µM | Activity (phenol red permeation) [8]: 24.2

Serum concentration of pindolol ([1]; rat, in vivo, 180 min): 12.0 ± 4.2 ng/mL
Compound: C[S+](C)[O-] [DMSO, dimethylsulfoxide, reference compound]
Activity (serum concentration of pindolol) [1]: 1.0

Compound: CCCCCCCCCSCCN1CCCC1=O [Example 1, 1-[2-(n-nonylthio)ethyl] azacyclopentane-2-one]
Activity (serum concentration of pindolol) [1]: 30.0

Compound: CCCCCSCCCCCCN1CCCCCC1=O [Example 2, 1-[6-(n-pentylthio)hexyl] azacycloheptane-2-one]
Activity (serum concentration of pindolol) [1]: 12.7

Compound: CCCCCCCCOCCCN1CCCCCC1=O [Example 4, 1-[3-(n-octyloxy)propyl] azacycloheptane-2-one]
Activity (serum concentration of pindolol) [1]: 31.5

Compound: CCCCCCCCCCSCCCN1CCCC1=O [Example 16]
Activity (serum concentration of pindolol) [1]: 32.0

Compound: CCCCCCCSCCCCCN1CCCC1=O [Example 20]
Activity (serum concentration of pindolol) [1]: 40.6

Compound: CCCCCCCSCCCN1CCCCCC1=O [Example 29]
Activity (serum concentration of pindolol) [1]: 14.8

Compound: CCCCCCCCSCCCN1CCCCCC1=O [Example 30]
Activity (serum concentration of pindolol) [1]: 12.7

Compound: CCCCCCCCCSCCCN1CCCCCC1=O [Example 31]
Activity (serum concentration of pindolol) [1]: 27.5

Compound: CCCCCSCCCCN1CCCCCC1=O [Example 35]
Activity (serum concentration of pindolol) [1]: 8.8

Compound: CCCCCCSCCCCN1CCCCCC1=O [Example 36]
Activity (serum concentration of pindolol) [1]: 19.6

Compound: CCCCCCCSCCCCN1CCCCCC1=O [Example 37]
Activity (serum concentration of pindolol) [1]: 16.2 | LD50 at 168 h ([4]; po): > 5000 mg/kg | LD50 at 168 h ([4]; sc): > 5000 mg/kg | Average irritation score, 24 hours [7]: 0.6 ± 2 | Average irritation score, 48 hours [7]: 0.5 ± 0.5 | Average irritation score, 72 hours [7]: 0.5 ± 0.5 | Overall evaluation (skin irritation) [7]: Mild (mild irritation (0-2 points)) | Activity (phenol red permeation) [8]: 54.2

Compound: CCCCCCCCSCCCCN1CCCCCC1=O [Example 38]
Activity (serum concentration of pindolol) [1]: 12.0

Compound: CCCCCCCCCSCCCCN1CCCCCC1=O [Example 39]
Activity (serum concentration of pindolol) [1]: 18.0

Compound: CCCCCCCSCCCCCN1CCCCCC1=O [Example 43]
Activity (serum concentration of pindolol) [1]: 16.2

Compound: CCCCCCSCCCCCCN1CCCCCC1=O [Example 48]
Activity (serum concentration of pindolol) [1]: 14.9

Compound: CCCCSCCCCCCCN1CCCCCC1=O [Example 49]
Activity (serum concentration of pindolol) [1]: 23.2

Compound: CCCSCCCCCCCCN1CCCCCC1=O [Example 50]
Activity (serum concentration of pindolol) [1]: 6.6

Compound: CCCCCCCCCCOCCN1CCCC1=O [Example 57]
Activity (serum concentration of pindolol) [1]: 33.0 | LD50 at 168 h ([4]; po): > 5000 mg/kg | LD50 at 168 h ([4]; sc): > 5000 mg/kg | Average irritation score, 24 hours [7]: 0.0 ± 0.0 | Average irritation score, 48 hours [7]: 0.3 ± 0.3 | Average irritation score, 72 hours [7]: 0.3 ± 0.3 | Overall evaluation (skin irritation) [7]: Mild (mild irritation (0-2 points)) | Activity (phenol red permeation) [8]: 65.5

Compound: CCCCCCCOCCCCCN1CCCC1=O [Example 66]
Activity (serum concentration of pindolol) [1]: 30.2

Compound: CCCCCOCCCCCCN1CCCC1=O [Example 67]
Activity (serum concentration of pindolol) [1]: 22.8

Compound: CCCCCCCCCCOCCCN1CCCCCC1=O [Example 72]
Activity (serum concentration of pindolol) [1]: 27.2

Compound: CCCCCCCOCCCCN1CCCCCC1=O [Example 73]
Activity (serum concentration of pindolol) [1]: 34.1 | LD50 at 168 h ([4]; po): > 5000 mg/kg | LD50 at 168 h ([4]; sc): > 5000 mg/kg | Average irritation score, 24 hours [7]: 0.3 ± 0.3 | Average irritation score, 48 hours [7]: 0.3 ± 0.3 | Average irritation score, 72 hours [7]: 0.5 ± 0.5 | Overall evaluation (skin irritation) [7]: Mild (mild irritation (0-2 points)) | Activity (phenol red permeation) [8]: 56.3

Compound: CCCCCCCCOCCCCN1CCCCCC1=O [Example 74]
Activity (serum concentration of pindolol) [1]: 28.9

Compound: CCCCCCOCCCCCN1CCCCCC1=O [Example 76]
Activity (serum concentration of pindolol) [1]: 8.3

Compound: CCCCCCOCCCCCCN1CCCCCC1=O [Example 80]
Activity (serum concentration of pindolol) [1]: 26.1

Compound: COc1ccc(Cl)cc1C(=O)NCCc1ccc(S(=O)(=O)NC(=O)NC2CCCCC2)cc1 [Glibenclamide]
Glucose level [5]: 157 ± 7 mg/dL | effects on hypoglycemic activity ([5]; glibenclamide used alone, compared with control group A): not exhibit any effects on hypoglycemic activity | Inhibition rate [5]: -3.6%

Compound: Insulin: Insulin (Bovine, International Unit); control group (only insulin used)
effects on glucose level in blood (in words) ([6]; compared with the normal group): exhibited no effects on glucose level in blood | Changes of glucose level to the initial, 0.5 hr [6]: -1 mg/dL | Changes of glucose level to the initial, 1 hr [6]: +3 mg/dl | Changes of glucose level to the initial, 3 hrs [6]: +1 mg/dl

Compound: Pyrrolidone carboxylic acid [Pyrolidone carbonic acid, reference compound]
Activity (serum concentration of pindolol) [1]: 2.1 | Activity (pindolol permeation) [3]: 0.5
